Common to all, as to assay: biochemical
What all share (parameters): KINOMEscan scanMAX active site-directed competition binding assay, percent of control, 468 kinases
Common to all, as to conditions: competition binding, percent of control

Experiment [1] concerns the target T1, ABL1(E255K)-phosphorylated (Homo sapiens, UniProt P00519, E255K).
T1 construct: phosphorylated
Put shortly:
(§1)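 Single-concentration screen (100 μM S-carvone) in a competition binding panel of 468 human kinases (KINOMEscan scanMAX); results given as percent of control, hit cutoff 35%.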

A further experiment has as its target T2, DCAMKL2 (Homo sapiens, UniProt Q8N568).
T2 construct: gene DCLK2
In a few lines:
as §1

For another experiment, the target named is T3, ERK3 (Homo sapiens, UniProt Q16659).
T3 construct: gene MAPK6
In a few lines:
as §1

In another experiment the target is FLT3(D835H) (Homo sapiens, UniProt P36888, D835H). Put shortly:
as §1

Another experiment addresses LATS1 (Homo sapiens, UniProt O95835). In a few lines: as §1
The target in a further experiment is T4, MLK3 (Homo sapiens, UniProt Q16584).
T4 construct: gene MAP3K11
Put shortly: as §1

Experiment [2] addresses T5, RPS6KA4(Kin.Dom.1-N-terminal) (Homo sapiens, UniProt O75676).
T5 construct: Kin.Dom.1-N-terminal
Put shortly:
as §1

In a further experiment the target is TEC (Homo sapiens, UniProt P42680). In a few lines: as §1
The target in the next experiment is TNK1 (Homo sapiens, UniProt Q13470). In a few lines:
as §1

The target in the next experiment is T6, TRKB (Homo sapiens, UniProt Q16620).
T6 construct: gene NTRK2
In a few lines: as §1

The target in another experiment is TYRO3 (Homo sapiens, UniProt Q06418). In a few lines:
as §1

For a further experiment, the target named is T7, YANK2 (Homo sapiens, UniProt Q9NY57).
T7 construct: gene STK32B
Put shortly: as §1

T4 sequence (Q16584 whole entry): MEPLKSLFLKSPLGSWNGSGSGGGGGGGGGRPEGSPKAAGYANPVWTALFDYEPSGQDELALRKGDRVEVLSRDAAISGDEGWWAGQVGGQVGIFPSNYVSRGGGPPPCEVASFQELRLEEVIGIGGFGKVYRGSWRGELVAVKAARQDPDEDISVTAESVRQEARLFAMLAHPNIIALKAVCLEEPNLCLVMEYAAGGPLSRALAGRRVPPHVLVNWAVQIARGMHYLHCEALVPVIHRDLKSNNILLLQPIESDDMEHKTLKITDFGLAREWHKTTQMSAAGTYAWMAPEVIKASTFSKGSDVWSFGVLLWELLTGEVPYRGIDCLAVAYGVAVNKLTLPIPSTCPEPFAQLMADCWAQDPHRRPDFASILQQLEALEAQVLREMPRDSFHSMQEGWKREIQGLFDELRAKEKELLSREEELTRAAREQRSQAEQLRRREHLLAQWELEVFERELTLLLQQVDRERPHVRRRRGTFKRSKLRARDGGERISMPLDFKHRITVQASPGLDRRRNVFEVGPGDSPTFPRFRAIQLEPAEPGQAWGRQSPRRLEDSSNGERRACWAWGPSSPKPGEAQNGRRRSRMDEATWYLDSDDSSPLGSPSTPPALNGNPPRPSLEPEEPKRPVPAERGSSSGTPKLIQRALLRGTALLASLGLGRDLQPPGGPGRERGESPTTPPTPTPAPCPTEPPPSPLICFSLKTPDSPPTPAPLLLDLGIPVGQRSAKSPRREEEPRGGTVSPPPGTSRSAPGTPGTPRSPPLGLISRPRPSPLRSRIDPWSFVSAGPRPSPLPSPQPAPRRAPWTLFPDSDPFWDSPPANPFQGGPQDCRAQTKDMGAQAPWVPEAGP
Sequence of TYRO3 (Q06418 whole entry): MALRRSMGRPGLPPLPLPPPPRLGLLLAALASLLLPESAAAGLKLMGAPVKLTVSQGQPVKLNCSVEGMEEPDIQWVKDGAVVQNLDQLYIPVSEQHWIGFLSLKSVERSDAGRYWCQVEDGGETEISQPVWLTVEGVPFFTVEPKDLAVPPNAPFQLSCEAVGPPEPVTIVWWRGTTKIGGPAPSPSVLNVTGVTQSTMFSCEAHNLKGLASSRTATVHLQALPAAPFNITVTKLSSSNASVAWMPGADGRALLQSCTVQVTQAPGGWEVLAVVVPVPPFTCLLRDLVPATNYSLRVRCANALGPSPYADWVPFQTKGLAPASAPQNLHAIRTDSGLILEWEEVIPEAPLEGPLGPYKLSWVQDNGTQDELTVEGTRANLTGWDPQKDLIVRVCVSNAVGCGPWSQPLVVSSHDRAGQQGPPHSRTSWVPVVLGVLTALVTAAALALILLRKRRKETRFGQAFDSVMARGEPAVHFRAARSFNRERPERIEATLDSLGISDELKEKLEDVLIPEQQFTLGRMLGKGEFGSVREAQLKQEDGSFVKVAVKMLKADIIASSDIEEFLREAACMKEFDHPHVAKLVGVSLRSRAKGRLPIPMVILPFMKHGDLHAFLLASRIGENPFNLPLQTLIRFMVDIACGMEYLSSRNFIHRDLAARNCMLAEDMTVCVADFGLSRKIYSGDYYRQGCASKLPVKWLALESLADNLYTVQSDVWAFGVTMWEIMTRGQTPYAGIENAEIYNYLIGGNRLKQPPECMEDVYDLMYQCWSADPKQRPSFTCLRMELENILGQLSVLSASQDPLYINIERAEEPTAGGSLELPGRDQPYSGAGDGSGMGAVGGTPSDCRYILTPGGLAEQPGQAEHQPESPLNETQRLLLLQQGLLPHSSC
T2 sequence (Q8N568 whole entry): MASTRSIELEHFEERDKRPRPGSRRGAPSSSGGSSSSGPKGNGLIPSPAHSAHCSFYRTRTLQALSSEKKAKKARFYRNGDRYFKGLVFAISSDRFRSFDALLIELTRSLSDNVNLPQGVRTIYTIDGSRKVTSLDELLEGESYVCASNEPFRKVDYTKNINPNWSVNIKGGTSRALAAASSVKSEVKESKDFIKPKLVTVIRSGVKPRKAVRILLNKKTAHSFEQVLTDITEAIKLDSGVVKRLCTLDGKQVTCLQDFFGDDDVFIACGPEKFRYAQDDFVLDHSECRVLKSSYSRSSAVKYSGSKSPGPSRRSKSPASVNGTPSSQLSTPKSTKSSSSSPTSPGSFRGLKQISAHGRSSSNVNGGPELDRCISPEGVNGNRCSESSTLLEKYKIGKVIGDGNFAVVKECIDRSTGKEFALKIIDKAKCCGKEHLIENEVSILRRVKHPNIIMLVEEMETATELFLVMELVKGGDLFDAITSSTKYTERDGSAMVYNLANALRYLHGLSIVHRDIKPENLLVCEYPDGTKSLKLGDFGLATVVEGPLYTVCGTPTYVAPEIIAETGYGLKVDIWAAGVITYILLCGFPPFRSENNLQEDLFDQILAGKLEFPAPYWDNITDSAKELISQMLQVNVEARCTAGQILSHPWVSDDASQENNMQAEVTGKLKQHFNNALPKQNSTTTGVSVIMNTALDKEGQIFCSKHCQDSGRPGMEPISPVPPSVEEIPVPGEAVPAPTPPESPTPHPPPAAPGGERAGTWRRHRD
T3 sequence (Q16659 whole entry): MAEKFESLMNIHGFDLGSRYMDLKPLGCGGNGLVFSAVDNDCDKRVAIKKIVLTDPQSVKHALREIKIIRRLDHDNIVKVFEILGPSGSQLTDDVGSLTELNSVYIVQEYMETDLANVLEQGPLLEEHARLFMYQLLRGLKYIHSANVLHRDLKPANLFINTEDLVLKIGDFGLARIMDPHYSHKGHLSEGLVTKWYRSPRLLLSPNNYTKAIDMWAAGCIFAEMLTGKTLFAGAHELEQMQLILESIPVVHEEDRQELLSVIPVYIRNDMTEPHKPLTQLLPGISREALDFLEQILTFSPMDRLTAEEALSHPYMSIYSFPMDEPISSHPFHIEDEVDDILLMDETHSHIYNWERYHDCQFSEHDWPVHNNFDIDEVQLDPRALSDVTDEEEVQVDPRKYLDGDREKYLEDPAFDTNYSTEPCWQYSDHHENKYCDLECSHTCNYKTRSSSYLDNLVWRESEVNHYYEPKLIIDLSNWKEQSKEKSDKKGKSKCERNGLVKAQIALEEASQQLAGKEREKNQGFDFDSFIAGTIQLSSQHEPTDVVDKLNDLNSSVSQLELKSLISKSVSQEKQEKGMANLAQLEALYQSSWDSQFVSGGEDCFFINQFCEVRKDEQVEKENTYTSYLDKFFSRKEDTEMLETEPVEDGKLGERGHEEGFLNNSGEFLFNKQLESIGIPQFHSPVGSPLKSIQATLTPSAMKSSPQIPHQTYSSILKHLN
Sequence of LATS1 (O95835 whole entry): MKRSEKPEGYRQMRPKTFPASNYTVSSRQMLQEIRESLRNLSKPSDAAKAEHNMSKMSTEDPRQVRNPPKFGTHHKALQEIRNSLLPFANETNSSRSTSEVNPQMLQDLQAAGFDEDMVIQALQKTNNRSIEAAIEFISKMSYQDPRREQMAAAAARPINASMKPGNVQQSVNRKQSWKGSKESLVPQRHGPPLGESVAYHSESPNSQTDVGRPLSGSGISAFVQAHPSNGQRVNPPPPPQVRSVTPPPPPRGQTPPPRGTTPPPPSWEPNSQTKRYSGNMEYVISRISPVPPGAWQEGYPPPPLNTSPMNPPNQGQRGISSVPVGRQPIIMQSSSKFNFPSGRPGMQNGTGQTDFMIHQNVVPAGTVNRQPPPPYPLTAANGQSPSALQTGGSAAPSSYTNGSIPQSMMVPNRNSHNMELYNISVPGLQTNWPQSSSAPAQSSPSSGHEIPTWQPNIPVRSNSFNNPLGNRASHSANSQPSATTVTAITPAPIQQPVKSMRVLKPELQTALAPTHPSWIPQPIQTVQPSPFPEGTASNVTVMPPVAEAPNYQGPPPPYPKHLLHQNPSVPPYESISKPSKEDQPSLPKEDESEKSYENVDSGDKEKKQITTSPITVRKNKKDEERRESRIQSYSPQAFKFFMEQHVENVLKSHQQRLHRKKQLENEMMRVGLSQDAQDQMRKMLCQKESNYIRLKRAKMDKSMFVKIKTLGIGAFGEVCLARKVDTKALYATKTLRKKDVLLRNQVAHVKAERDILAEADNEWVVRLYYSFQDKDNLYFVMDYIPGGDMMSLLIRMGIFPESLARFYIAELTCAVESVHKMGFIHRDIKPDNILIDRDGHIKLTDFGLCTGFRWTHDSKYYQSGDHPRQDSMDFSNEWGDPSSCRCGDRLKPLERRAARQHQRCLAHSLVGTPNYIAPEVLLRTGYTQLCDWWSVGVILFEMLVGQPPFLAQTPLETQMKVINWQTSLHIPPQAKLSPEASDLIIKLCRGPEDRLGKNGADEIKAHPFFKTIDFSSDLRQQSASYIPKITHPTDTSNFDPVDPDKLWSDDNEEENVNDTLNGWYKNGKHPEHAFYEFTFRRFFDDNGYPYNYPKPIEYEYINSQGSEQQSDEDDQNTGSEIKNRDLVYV
Sequence of TEC (P42680 whole entry): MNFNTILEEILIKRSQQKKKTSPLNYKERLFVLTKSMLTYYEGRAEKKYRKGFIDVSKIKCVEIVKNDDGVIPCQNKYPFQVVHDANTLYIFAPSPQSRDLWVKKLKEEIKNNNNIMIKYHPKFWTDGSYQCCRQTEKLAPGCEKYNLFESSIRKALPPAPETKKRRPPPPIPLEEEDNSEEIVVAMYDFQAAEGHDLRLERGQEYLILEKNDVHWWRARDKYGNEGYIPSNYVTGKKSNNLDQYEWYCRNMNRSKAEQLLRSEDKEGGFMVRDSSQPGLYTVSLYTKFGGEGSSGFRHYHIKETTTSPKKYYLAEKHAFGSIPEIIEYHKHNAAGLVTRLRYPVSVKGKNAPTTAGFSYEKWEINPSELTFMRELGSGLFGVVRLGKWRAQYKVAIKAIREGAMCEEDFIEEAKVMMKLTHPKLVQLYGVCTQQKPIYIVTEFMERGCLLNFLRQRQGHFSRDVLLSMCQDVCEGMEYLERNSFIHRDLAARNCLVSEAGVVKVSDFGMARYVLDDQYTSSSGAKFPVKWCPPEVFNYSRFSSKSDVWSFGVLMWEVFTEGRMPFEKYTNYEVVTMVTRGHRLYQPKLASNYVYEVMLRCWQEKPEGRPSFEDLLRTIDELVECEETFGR

Take `C=C(C)[C@H]1CC=C(C)C(=O)C1` [S-carvone]: the remaining binding at 100 µM in experiment [1] worked out at 72%; on DCAMKL2, 87%; at ERK3 it was 73%; on FLT3(D835H), 92%; on LATS1 it was 91%; at MLK3, 73%. Moreover, the remaining binding at 100 µM in [2] was 87%; on TEC, 96%; at TNK1, 100%; at TRKB it was 78%; at TYRO3 it was 87%; at YANK2, 79%.

The record behind these values is PMC10174618, “Monoterpenoid aryl hydrocarbon receptor allosteric antagonists protect against ultraviolet skin damage in female mice” (Nature Communications, 2023).
